Reference: patent US20140135359A1, “METHODS OF DESIGNING, PREPARING, AND USING NOVEL PROTONOPHORES” (priority 2012, published 2014)
pEC50: −log10 of the molar value.

Legend:
[1] = system: isolated rat liver mitochondria; experiment: Uncoupling activity: increase in basal (state 4) oxygen consumption by oxygraphy; type: biochemical; conditions: for Uncoupling (%): increase in basal (state 4) oxygen consumption as % of average ADP-stimulated (state 3) rate in vehicle-treated mitochondria
[2] = system: isolated rat liver mitochondria; experiment: Residual functional capacity / inhibitory effect on ADP-stimulated (state 3) oxygen consumption; type: biochemical; conditions: for Residual capacity (%): functional capacity (state 3 minus state 4 rate) as % of vehicle-treated mitochondria
[3] = system: glucose-6-phosphatase (G6Pase) activity in H4IIE hepatocytes; experiment: Glucose-6-phosphatase activity in H4IIE hepatocytes; type: cell-based, murine; conditions: 25 μM, 16 h
Procedure: 2.4 Glucose-6-phosphatase activity in H4IIE hepatocytes: H4IIE murine hepatocytes (American Type Culture Collection) were cultured to confluence in 12-well plates in DMEM supplemented with 10% FBS and antibiotics. […] Effects of test compounds on cellular viability were assessed by measuring the release of lactate dehydrogenase (LDH) into the culture medium at the end of a 16 h treatment using a commercial kit (Cytotoxicity Detection Kit; Roche Diagnostics; Laval, QC) as per the manufacturer's instructions; LDH release was expressed as % of total (medium+lysate) LDH content for each well. Cells were also routinely inspected for abnormal morphology by phase-contrast microscopy at the conclusion of the treatment period. Following treatment, cells were washed in HEPES-buffered saline (10 mM HEPES, pH 7.4, 150 mM NaCl) at 37° C. Glucose-6-phosphatase (G6Pase) activity was assessed by measuring the rate of glucose formation in the presence of a non-limiting amount of glucose-6-phosphate (G6P), as done by others [39B, 40B]. Glucose production was measured with a commercial glucose assay kit (AutoKit Glucose; Wako Diagnostics; Richmond, Va.). Two hundred μl of AutoKit Glucose buffer solution diluted 1:4 in water were added to each well. Cells were then lysed by the addition of 50 μl of 0.05% Triton X-100 in similarly diluted AutoKit Glucose buffer solution. […] At 37° C., after which time 500 μl of AutoKit Glucose color reagent were added and incubation was continued for exactly 5 min. Samples were then rapidly transferred to microcentrifuge tubes. Fifty μl were removed for assay of total protein content in order to account for effects of test compounds on cellular viability or proliferation [41B]. A commercial protein assay kit based on the Bradford method was used (Protein Assay; Bio-Rad Laboratories; Hercules, Calif.). […] The remaining volume was centrifuged at 3000×g for 5 min. Absorbance of the supernatant was measured at 505 nm at ambient temperature and glucose concentration was calculated from a standard curve performed in parallel. Control wells without exogenous G6P were included on each plate for each treatment condition and activity measured from these wells was subtracted from activity measured in the presence of exogenous G6P. G6Pase activity calculated in this way was then expressed normalized to protein content on a well-by-well basis. Two independent experiments in cells of different passages were performed for each of the selected test compounds, with four to six replicates per condition per experiment.
Protocol for assay of glucose-6-phosphatase activity in H4IIE or other hepatocytes: H4IIE murine hepatocytes (American Type Culture Collection) may be cultured to confluence in 12-well plates in Dulbecco's modified Eagle's medium (DMEM) supplemented with 10% fetal bovine serum (FBS), and antibiotics. […] Effects of test compounds on cellular viability may be assessed by measuring the release of lactate dehydrogenase (LDH) into the culture medium at the end of a 16 hour treatment using a commercial kit (e.g., Cytotoxicity Detection Kit; Roche Diagnostics; Laval, QC) as per the manufacturer's instructions; LDH release may be expressed as % of total (i.e., medium+lysate) LDH content for each well. Cells may also be routinely inspected for abnormal morphology by phase-contrast microscopy at the conclusion of the treatment period. Following treatment, cells may be washed in HEPES-buffered saline (10 mM HEPES, pH 7.4, 150 mM NaCl) at 37° C. Glucose-6-phosphatase (G6Pase) activity may be assessed by measuring the rate of glucose formation in the presence of a non-limiting amount of glucose-6-phosphate (G6P). Glucose production may be measured with a commercial glucose assay kit (e.g., AutoKit Glucose; Wako Diagnostics; Richmond, Va.). Two hundred μl of AutoKit Glucose buffer solution diluted 1:4 in water may be added to each well.

H4IIE hepatocytes = experiment: Lactate dehydrogenase (LDH) release, cellular viability; type: cell-based, murine; conditions: 25 μM, 16 h
Procedure: 2.4 Glucose-6-phosphatase activity in H4IIE hepatocytes: H4IIE murine hepatocytes (American Type Culture Collection) were cultured to confluence in 12-well plates in DMEM supplemented with 10% FBS and antibiotics. […] Effects of test compounds on cellular viability were assessed by measuring the release of lactate dehydrogenase (LDH) into the culture medium at the end of a 16 h treatment using a commercial kit (Cytotoxicity Detection Kit; Roche Diagnostics; Laval, QC) as per the manufacturer's instructions; LDH release was expressed as % of total (medium+lysate) LDH content for each well. […] Glucose-6-phosphatase (G6Pase) activity was assessed by measuring the rate of glucose formation in the presence of a non-limiting amount of glucose-6-phosphate (G6P), as done by others [39B, 40B]. Glucose production was measured with a commercial glucose assay kit (AutoKit Glucose; Wako Diagnostics; Richmond, Va.). […] Absorbance of the supernatant was measured at 505 nm at ambient temperature and glucose concentration was calculated from a standard curve performed in parallel. Control wells without exogenous G6P were included on each plate for each treatment condition and activity measured from these wells was subtracted from activity measured in the presence of exogenous G6P. G6Pase activity calculated in this way was then expressed normalized to protein content on a well-by-well basis. […]

O=[N+]([O-])c1ccc(O)c([N+](=O)[O-])c1 [2,4-dinitrophenol]
uncoupling activity ([1]; 50 μM in 0.1% DMSO (FIG. 19)): increased basal oxygen consumption above the level of ADP-stimulated consumption | measured uncoupling activity ([1]; 100 μM): 143% | slope of the linear portion of the concentration-to-activity relationship ([1]; dose-escalation, logarithmic scales): 0.89 | pEC50 ([1]; dose-escalation, read-out: U50 (concentration at which 50% uncoupling is induced)): ~5.00 | Uncoupling (%) ([1]; test conc. 25 μM): 127 ± 11% | Uncoupling (%) ([1]; test conc. 100 μM): 143 ± 5% | Inhibitory effect (%) ([2]; test conc. 25 μM): 0% | Residual capacity (%) ([2]; test conc. 25 μM): 14 ± 6% | Inhibitory effect (%) ([2]; test conc. 100 μM): 0% | Residual capacity (%) ([2]; test conc. 100 μM): 0 ± 0% | suppression of G6Pase activity per mg total protein [3]: 39% | release of lactate dehydrogenase (H4IIE hepatocytes): comparable to that of vehicle-treated cells
